Test results: US8889668B2, “Oxadiazole diaryl compounds” (Merck Serono SA, priority 2007, dated 2014)

Legend:
[1] = molecular target: T1, S1P1 (Homo sapiens (Human), UniProt P21453); experiment: Receptor binding assay, [33P]sphingosine 1-phosphate, membranes from CHO cells expressing S1P1; settings: [33P]S1P 25 pM, SPA
Method: (§1) Receptor binding assay: Membranes were prepared from CHO cells expressing S1P1 or S1P3 for use in ligand and […] binding studies. Cells were suspended in 50 mM TRIS, pH 7.4, 2 mM EDTA, 250 mM Sucrose (buffer A) and 1× Complete protease inhibitor cocktail (Roche), and disrupted at 4° C. by nitrogen decompression using a cell disruption bomb (Parr Instrument). Following centrifugation at 1000 RPM for 10 min at 4° C., the supernatant was suspended in buffer A and centrifuged again at 19000 RPM for 60 min at 4° C. The pellet was then suspended in 10 mM HEPES, pH 7.4, 1 mM EDTA, 250 mM Sucrose (Buffer B), and 1× Complete EDTA-free protease inhibitor cocktail and homogenized using a potter. Membranes were flash frozen in liquid nitrogen and stored at −80° C. [33P]sphingosine 1-phosphate (3000 Ci/mmol; American Radiolabeled Chemicals, Inc.) was added to test compounds in DMSO. Membranes and WGA SPA beads (GE Healthcare) were added to give a final volume of 100 μl in 96-well plates with assay concentrations of 25 pM or 10 pM [33P]sphingosine 1-phosphate (respectively for S1P1 or S1P3), 50 mM HEPES, pH 7.5, 5 mM MgCl2, 100 mM NaCl, 0.4% fatty acid-free BSA, 1-5 μg/well of proteins and 100 μg/well of WGA SPA beads. Binding was performed for 60 min at room temperature on a shaker and bound radioactivity was measured on a PerkinElmer 1450 MicroBeta counter. Specific binding was calculated by subtracting remaining radioactivity in the presence of 1000-fold excess of unlabeled S1P. Binding data were analyzed using the GraphPad Prism program.

[2] = molecular target: T1, S1P1; experiment: 35S-GTPγS binding, membranes from CHO cells expressing S1P1; format: biochemical; settings: 60 min 30° C., read-out: S1P1 GTPgS EC50
[3] = molecular target: S1P3 (Homo sapiens (Human), UniProt Q99500); experiment: 35S-GTPγS binding, membranes from CHO cells expressing S1P3; format: biochemical; settings: 60 min 30° C., read-out: S1P3 GTPgs EC50
Method: as §1
Measurements of ^35S-GTPγS Binding: Membranes (1 to 10 μg protein) prepared as described above, were incubated in 96-well Scintiplates (PerkinElmer) with test compounds diluted in DMSO, in 180 μl of 20 mM HEPES, pH 7.4, 10 mM MgCl2, 2 μg/well Saponin, 0.2% fatty acid free BSA (Assay buffer), 140 mM NaCl and 1.7 μM GDP. The assay was initiated with the addition of 20 μl of 1.5 nM [35S]-GTPγS (1100 Ci/mmol; GE Healthcare) in assay buffer. After 60 min incubation at 30° C. on a shaker, plates were centrifuged for 10 min at 2000 RPM. Supernatant was discarded and membrane bound radioactivity was measured on a PerkinElmer 1450 MicroBeta counter. Triplicate samples were averaged and expressed as % response relative to S1P activation in absence of compound (n=2).

S1P3, sequence (Q99500 whole entry, species assumed): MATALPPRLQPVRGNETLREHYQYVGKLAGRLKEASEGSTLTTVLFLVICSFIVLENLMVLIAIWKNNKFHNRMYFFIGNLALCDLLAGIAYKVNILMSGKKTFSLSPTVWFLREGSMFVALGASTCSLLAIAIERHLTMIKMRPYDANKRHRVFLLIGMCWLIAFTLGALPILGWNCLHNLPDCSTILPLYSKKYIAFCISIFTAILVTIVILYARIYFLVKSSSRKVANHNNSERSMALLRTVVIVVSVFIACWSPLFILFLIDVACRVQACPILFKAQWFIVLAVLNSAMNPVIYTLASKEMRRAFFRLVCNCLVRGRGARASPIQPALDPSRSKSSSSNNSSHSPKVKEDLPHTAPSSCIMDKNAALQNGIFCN
T1 sequence (P21453 whole entry, species assumed): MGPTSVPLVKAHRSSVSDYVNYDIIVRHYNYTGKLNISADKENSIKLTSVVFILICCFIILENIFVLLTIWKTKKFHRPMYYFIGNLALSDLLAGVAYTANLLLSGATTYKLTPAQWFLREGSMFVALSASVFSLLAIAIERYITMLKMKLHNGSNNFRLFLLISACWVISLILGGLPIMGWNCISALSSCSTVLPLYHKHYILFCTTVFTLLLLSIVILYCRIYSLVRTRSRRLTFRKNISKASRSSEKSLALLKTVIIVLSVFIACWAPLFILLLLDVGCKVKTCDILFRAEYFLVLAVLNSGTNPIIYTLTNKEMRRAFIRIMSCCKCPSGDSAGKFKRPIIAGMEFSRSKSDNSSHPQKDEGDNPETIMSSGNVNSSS

## COc1ccccc1-c1noc(-c2ccc(N3CCCCC3)c([N+](=O)[O-])c2)n1 [Compound I1, 1-{4-[3-(2-methoxyphenyl)-1,2,4-oxadiazol-5-yl]-2-nitrophenyl}piperidine]
[1]
  Ki: 11 nM
[2]
  EC50: 27 nM
[3]
  EC50: > 20000 nM

## COc1ccccc1-c1noc(-c2ccc(N3CCOCC3)c([N+](=O)[O-])c2)n1 [Compound I2, 4-{4-[3-(2-methoxyphenyl)-1,2,4-oxadiazol-5-yl]-2-nitrophenyl}morpholine]
[1]
  Ki: 18 nM
[2]
  EC50: 51 nM
[3]
  EC50: > 30000 nM

## FC(F)(F)Oc1ccccc1-c1noc(-c2ccc(N3CCCCC3)cc2)n1 [Compound I3, 1-(4-{3-[2-(trifluoromethoxy)phenyl]-1,2,4-oxadiazol-5-yl}phenyl)piperidine]
[1]
  Ki: 652 nM
[2]
  EC50: 1780 nM

## COc1ccccc1-c1noc(-c2ccc(N3CCCCC3)cc2)n1 [Compound I4, 1-{4-[3-(2-methoxyphenyl)-1,2,4-oxadiazol-5-yl]phenyl}piperidine]
[1]
  Ki: 1070 nM
[2]
  EC50: 3600 nM

## CC1CCCCN1c1ccc(-c2nc(-c3ccccc3OC(F)(F)F)no2)cc1[N+](=O)[O-] (centres unmarked) [Compound I8, 2-methyl-1-(2-nitro-4-{3-[2-(trifluoromethoxy)phenyl]-1,2,4-oxadiazol-5-yl}phenyl)piperidine]
[2]
  EC50: 18 nM
[3]
  EC50: > 30000 nM

## COc1ccccc1-c1noc(-c2ccc(N3CCCCC3C)c([N+](=O)[O-])c2)n1 (centres unmarked) [Compound I9, 1-{4-[3-(2-methoxyphenyl)-1,2,4-oxadiazol-5-yl]-2-nitrophenyl}-2-methylpiperidine]
[2]
  EC50: 7 nM
[3]
  EC50: 5410 nM

## CCOc1ccccc1-c1noc(-c2ccc(N3CCCCC3C)c([N+](=O)[O-])c2)n1 (centres unmarked) [Compound I10, 1-{4-[3-(2-ethoxyphenyl)-1,2,4-oxadiazol-5-yl]-2-nitrophenyl}-2-methylpiperidine]
[2]
  EC50: 24 nM
[3]
  EC50: > 30000 nM

## COc1ccccc1-c1noc(-c2ccc(N3CCCC(F)(F)C3)c([N+](=O)[O-])c2)n1 [Compound I12, 3,3-difluoro-1-{4-[3-(2-methoxyphenyl)-1,2,4-oxadiazol-5-yl]-2-nitrophenyl}piperidine]
[2]
  EC50: 36 nM
[3]
  EC50: > 30000 nM

## COc1ccccc1-c1noc(-c2ccc(N3CCOCC3)c(C(F)(F)F)c2)n1 [Compound I18, 4-[4-[3-(2-methoxyphenyl)-1,2,4-oxadiazol-5-yl]-2-(trifluoromethyl)phenyl]morpholine]
[1]
  Ki: 7 nM
[2]
  EC50: 6 nM
[3]
  EC50: > 30000 nM

## FC(F)(F)Oc1ccccc1-c1noc(-c2ccc(N3CCOCC3)c(C(F)(F)F)c2)n1 [Compound I19, 4-[4-{3-[2-(trifluoromethoxy)phenyl]-1,2,4-oxadiazol-5-yl}-2-(trifluoromethyl)phenyl]morpholine]
[2]
  EC50: 18 nM
[3]
  EC50: > 30000 nM

## COc1ccccc1-c1noc(-c2ccc(-c3ccccc3C)c(C)c2)n1 [Compound I20, 5-(2,2′-dimethylbiphenyl-4-yl)-3-(2-methoxyphenyl)-1,2,4-oxadiazole]
[1]
  Ki: 16 nM
[2]
  EC50: 44 nM
[3]
  EC50: 3210 nM

## Cc1ccccc1-c1ccc(-c2nc(-c3ccccc3OC(F)(F)F)no2)cc1C [Compound I21, 5-(2,2′-dimethylbiphenyl-4-yl)-3-[2-(trifluoromethoxy)phenyl]-1,2,4-oxadiazole]
[1]
  Ki: 8 nM
[2]
  EC50: 4 nM
[3]
  EC50: > 30000 nM

## CCOc1ccccc1-c1noc(-c2ccc(-c3ccccc3C)c(C)c2)n1 [Compound I22, 5-(2,2′-dimethylbiphenyl-4-yl)-3-(2-ethoxyphenyl)-1,2,4-oxadiazole]
[2]
  EC50: 51 nM
[3]
  EC50: > 30000 nM

## Cc1cc(-c2nc(-c3ccccc3OC(F)(F)F)no2)ccc1-c1ccccc1C(F)(F)F [Compound I23, 5-[2-methyl-2′-(trifluoromethyl)biphenyl-4-yl]-3-[2-(trifluoromethoxy)phenyl]-1,2,4-oxadiazole]
[1]
  Ki: 16 nM
[2]
  EC50: 10 nM
[3]
  EC50: > 30000 nM

## COc1ccccc1-c1noc(-c2ccc(-c3cscc3C)c(C)c2)n1 [Compound I25, 3-(2-methoxyphenyl)-5-[3-methyl-4-(4-methyl-3-thienyl)phenyl]-1,2,4-oxadiazole]
[1]
  Ki: 3 nM
[2]
  EC50: 9 nM
[3]
  EC50: 5490 nM

## COc1ccccc1-c1noc(-c2ccc(-c3ccccc3C)c([N+](=O)[O-])c2)n1 [Compound I26, 3-(2-methoxyphenyl)-5-(2′-methyl-2-nitrobiphenyl-4-yl)-1,2,4-oxadiazole]
[1]
  Ki: 2 nM
[2]
  EC50: 9 nM
[3]
  EC50: 5050 nM

## COc1ccccc1-c1noc(-c2ccc(C3CCCCC3)cc2)n1 [Compound I27, 5-(4-cyclohexylphenyl)-3-(2-methoxyphenyl)-1,2,4-oxadiazole]
[1]
  Ki: 20 nM
[2]
  EC50: 66 nM
[3]
  EC50: > 30000 nM

## COc1ccccc1-c1noc(-c2ccc(CC(C)C)cc2)n1 [Compound I28, 5-(4-isobutylphenyl)-3-(2-methoxyphenyl)-1,2,4-oxadiazole]
[1]
  Ki: 91 nM
[2]
  EC50: 162 nM
[3]
  EC50: > 30000 nM

## FC(F)(F)Oc1ccccc1-c1noc(-c2ccc(C3CCCCC3)cc2)n1 [Compound I29, 5-(4-cyclohexylphenyl)-3-[2-(trifluoromethoxy)phenyl]-1,2,4-oxadiazole]
[1]
  Ki: 25 nM
[2]
  EC50: 59 nM

## COc1ccc(F)cc1-c1noc(-c2ccc(-c3ccccc3C)c(C)c2)n1 [Compound I33, 5-(2,2′-dimethylbiphenyl-4-yl)-3-(5-fluoro-2-methoxyphenyl)-1,2,4-oxadiazole]
[1]
  Ki: 43 nM
[2]
  EC50: 6 nM

## Cc1ccccc1-c1ccc(-c2nc(-c3ccccc3OC(F)(F)F)no2)cc1[N+](=O)[O-] [Compound I36, 5-(2′-methyl-2-nitrobiphenyl-4-yl)-3-[2-(trifluoromethoxy)phenyl]-1,2,4-oxadiazole]
[2]
  EC50: 10 nM
[3]
  EC50: 2100 nM

## COc1ccccc1-c1ccc(-c2nc(-c3ccccc3OC(F)(F)F)no2)cc1C [Compound I45, 5-(2′-methoxy-2-methylbiphenyl-4-yl)-3-[2-(trifluoromethoxy)phenyl]-1,2,4-oxadiazole]
[2]
  EC50: 10 nM
[3]
  EC50: > 20000 nM

## COc1cc(-c2nc(-c3ccccc3OC(F)(F)F)no2)ccc1-c1ccccc1C [Compound I53, 5-(2-methoxy-2′-methylbiphenyl-4-yl)-3-[2-(trifluoromethoxy)phenyl]-1,2,4-oxadiazole]
[2]
  EC50: 14 nM
[3]
  EC50: > 20000 nM

## COc1cc(-c2nc(-c3ccccc3OC(F)(F)F)no2)ccc1-c1cscc1C [Compound I54, 5-[3-methoxy-4-(4-methyl-3-thienyl)phenyl]-3-[2-(trifluoromethoxy)phenyl]-1,2,4-oxadiazole]
[2]
  EC50: 13 nM
[3]
  EC50: > 30000 nM

## FC(F)(F)Oc1ccccc1-c1noc(-c2ccc(N3CCCCC3)c(C(F)(F)F)c2)n1 [Compound I61, 1-[4-{3-[2-(trifluoromethoxy)phenyl]-1,2,4-oxadiazol-5-yl}-2-(trifluoromethyl)phenyl]piperidine]
[1]
  Ki: 54 nM
[2]
  EC50: 4 nM

## COc1ccccc1-c1noc(-c2ccc(-c3ccccc3C)c(C(F)(F)F)c2)n1 [Compound I62, 3-(2-methoxyphenyl)-5-[2′-methyl-2-(trifluoromethyl)biphenyl-4-yl]-1,2,4-oxadiazole]
[1]
  Ki: 8 nM
[2]
  EC50: 4 nM

## COc1ccc(F)cc1-c1noc(-c2ccc(N3CCCCC3C)c(N)c2)n1 (centres unmarked) [Compound I69, 5-[3-(5-fluoro-2-methoxyphenyl)-1,2,4-oxadiazol-5-yl]-2-(2-methylpiperidin-1-yl)aniline]
[2]
  EC50: 24 nM
[3]
  EC50: 270 nM

## Cc1cscc1-c1ccc(-c2nc(-c3ccccc3OC(F)(F)F)no2)cc1C(F)(F)F [Compound I70, 5-[4-(4-methyl-3-thienyl)-3-(trifluoromethyl)phenyl]-3-[2-(trifluoromethoxy)phenyl]-1,2,4-oxadiazole]
[1]
  Ki: 4 nM
[2]
  EC50: 2 nM

## COc1ccc(F)cc1-c1noc(-c2cnc(N3CCCCC3C)c(C)c2)n1 (centres unmarked) [Compound I74, 5-[3-(5-fluoro-2-methoxyphenyl)-1,2,4-oxadiazol-5-yl]-3-methyl-2-(2-methylpiperidin-1-yl)pyridine]
[1]
  Ki: 6 nM
[2]
  EC50: 5 nM
